Test results from patent US6902728B1, “Chemokine receptor antagonist and cyclosporin in combined therapy” (Applied Research Systems ARS Holding N.V., priority 1998, dated 2005).
Several values for one entry are separate records, joined by “and”; a condition that tells them apart may be missing. Equal entries are not always repeated.

Experiments:
[1] = test system: MonoMac 6 cells on DMVEC; experiment: Monocyte recruitment on microvascular endothelium under physiological flow (laminar flow assay); assay type: cell-based, human
Experimental: The interaction of monocytes with DMVEC was studied in laminar flow assays performed essentially as descried (Weber C. et al., 1997, Kukerti S. et al., 1997, Piali L. et al., 1998). Briefly, DMVEC were grown to confluence in 35 mm Petri dishes, and stimulated with IL-1β (5 ng/ml) or left untreated for 12 h. The plates were assembled as the lower wall m a parallel wall flow chamber and mounted on the stage of an Olympus IMT-2 inverted microscope with 20× and 40× phase contrast objectives. Monotypes (MonoMac 6 cells) were cultured as reported (Ziegler-Heitbrock H. W. L. et al., 1988, Weber C. et al., 1993) and resuspended at 10^6/ml in assay buffer (HBSS) containing 10 mM Hepes/pH 7.4 and 0.5% HAS. Shortly before assay, 1 mM Mg^2+and 1 mM Ca^2+ was added. The cell suspensions were kept in a heating block at 37° C. during the assay and were perfused into the flow chamber at a rate of 1.5 dyn/cm for 5 min. For inhibition experiments, monocytes were preincubated with Met-RANTES at different concentrations (0.01-1 μg/ml) for 30 min on ice. The number of firmly adherent cells after 5 rain was quantified in multiple fields (at least 5 per experiment) by analysis of images recorded with a long integration JVC 3CCD video camera and a JVC SR L 900 E video recorder, and were expressed as cells/mm^2. The type of adhesion analysed was restricted to primary, i.e. direct interactions of monocytes with endotbelium. As an inverse measure of firm arrest, the number of cells rolling at reduced velocity on endothelium was determined within the last 30 sec. of the 5 min intervals, and were assessed as the percentage of all interactions in the field. The number of cells spreading or transmigrating after 5 min intervals was determined in high power fields as described (Luscinskas F. W. et al., 1994), and expressed as percentage of cells firmly attached.
In an attempt to gain insight into potential mechanisms of action of Met-RANTES, we studied whether a blockade of RANTES receptors could inhibit the firm arrest and diapedesis of monocytes on microvascular endothelium. To this end, we used monocytic MonoMac 6 cells that show the adhesive characteristics and integrin repertoire of mature monocytes, and express several chemokine receptors including CCR1 (Erl W. et al., 1995). DMVEC were grown to confluence on Petri dishes which were either left unstimulated or were activated with IL-1β (5 ng/ml) for 12 h. […] Under such physiological flow conditions, MonoMac 6 cells undergo short periods of rolling, and the attachment of a proportion of cells can be readily converted into shear-resistant arrest. After 5 min of accumulation, the number of MonoMac 6 cells that had undergone firm adhesion to the endothelium was determined (FIG. 2(a)).

[2] = test system: dermal microvascular endothelium (DMVEC); experiment: In vitro RANTES binding assay on DMVEC (modified ELISA); set-up: species or system human
Experimental: The DMVEC were grown to confluency on coated 96 well flat bottom plates, The resultant endothelial monolayer was either left untreated or treated with various concentrations of IL-L1β (0.1 to 5 ng/ml) for 12 h. The RANTES binding assay was a modification of a previously described procedure (Pattison J. et al., 1994, Wiedermann C. J. et al., 1993). Horseradish, peroxidase (HRP) conjugated anti-human-RANTES monoclonal antibody VL1 (0.1 μg) was pre-incubated at 25° C. for 30 min with an excess of recombinant human RANTES (20 μg/ml) in DMVEC growth media (without supplements). The chemokine-antibody complex was added then used to assay the relative chemokine binding capacity of the microvascular endothelium. The endothelial monolayer was gently washed 1× with unsupplemented growth media (25° C.) and the chemokine-antibody complex was added and incubated at 25° C. for 30 min. The wells were then washed four times with media without sera at 25° C. […] The optical density at 406 nm of the plate was determined using an ELISA plate reader.
Since a reduction of monocyte infiltration into vascular luminal spaces represented a prominent feature of Met-RANTES treatment in both transplantation models, we set out to study potential mechanisms for this effect. […] Using an ELISA-like format, the capacity of DMVEC to bind the antigen-mAb complex as opposed to mAb alone was determined. […]

[3] = test system: human microvascular endothelial cells (DMVEC); experiment: FACS analysis of adhesion molecule surface expression on DMVEC; assay type: cell-based; conditions: IL-1β 5 ng/ml, 12 hr; 3 independent experiments
Experimental: Flow cytometry analysis of dermal microvascular cells (DMVEC) was performed essentially as described (Weber C. et al., 1995). Briefly, confluent DMVEC stimulated with IL-Iβ (5 ng/ml), or left untreated for 12 h, were trypsinized, reacted with IL-saturating concentrations of ICAM-1 mAb RR1/1 (kindly provided by Dr. R. Rothlein), E-selectin mAb, VCAM-1 mAb (both Serotec), or isotype control for 30 min on ice, stained with fluorescein isothiocyanate (FITC)-conjuzated goat anti-mouse IgG (Boehringer Mannheim), and analysed in a FACScan (Becton Dickinson). After correction for unspecific binding, data were expressed as specific mean log fluorescence intensity (sMFI) in channels.

Substance	spreading or transmigration of monocytes ([1]; after firm arrest, 5 min, IL-1β activated DMVEC)	firm adhesion of monocytic cells to unstimulated microvascular endothelium ([1]; endothelial cells pre-exposed to RANTES)	firm arrest and accumulation of monocytes on IL-1β-activated microvascular endothelium ([1]; endothelium pre-exposed to RANTES (10 ng/ml, 30 min), within 5 min)	fraction of monocytes rolling on the activated microvascular endothelium ([1]; inverse measure of firm arrest, IL-1β activated DMVEC)	RANTES binding to microvascular endothelium following prestimulation ([2]; prestimulation with proinflammatory cytokine (5 ng/ml, 12 hours))	RANTES binding to microvascular endothelium without prestimulation ([2]; resting DMVEC, HRP-VL1 mAb/RANTES complex)	ICAM-1 surface expression, SMFI [3]
RANTES: recombinant human C-C chemokine (regulated upon activation, normal T-cell expressed and secreted)	did not alter	no significant effect	markedly enhanced	reduced	greatly increased	could bind some RANTES protein	
IL-1β: proinflammatory cytokine purchased from Sigma, used to activate DMVEC							502 channels and 592 channels and 432 channels
